Laboratory results as given in patent US9302999B2, “Substituted triazoles as herbicides” (E. I. DU PONT DE NEMOURS AND COMPANY, priority 2012, dated 2016).

Assays:
[1] = system: foxtail, giant (giant foxtail, Setaria faberii); experiment: Test E pre-/postemergence: foxtail, giant; assay type: in vivo; conditions: Preemergence, scale 0 to 100
Text: (§1) Seeds of plant species selected from corn (Zea mays), soybean (Glycine max), velvetleaf (Abutilon theophrasti), lambsquarters (Chenopodium album), poinsettia, wild (wild poinsettia, Euphorbia heterophylla), pigweed, palmer (palmer pigweed, Amaranthus palmeri), waterhemp (common waterhemp, Amaranthus rudis), smartweed (ladysthumb smartweed, Polygonum persicaria), surinam grass (Brachiaria decumbens), crabgrass, large (large crabgrass, Digitaria sanguinalis), crabgrass, Brazil (Brazilian crabgrass, Digitaria horizontalis), panicum, fall (fall panicum, Panicum dichotomiflorum), foxtail, giant (giant foxtail, Setaria faberii), foxtail, green (green foxtail, Setaria viridis), goosegrass (Eleusine indica), johnsongrass (Sorghum halepense), ragweed (common ragweed, Ambrosia elation), barnyardgrass (Echinochloa crus-galli), sandbur (southern sandbur, Cenchrus echinatus), arrowleaf sida (Sida rhombifolia), ryegrass, Italian (Italian ryegrass, Lolium multiflorum), dayflower, (VA) (Virginia dayflower, Commelina virginica), field bindweed (Convolvulus arvensis), cocklebur (common cocklebur, Xanthium strumarium), morningglory (Ipomoea coccinea), nightshade (eastern black nightshade, Solanum ptycanthum), kochia (Kochia scoparia), nutsedge, yellow (yellow nutsedge, Cyperus esculentus) and beggarticks (hairy beggarticks, Bidens pilosa) were planted into a silt loam soil and treated preemergence with test chemicals formulated in a non-phytotoxic solvent mixture which included a surfactant. At the same time, plants selected from these crop and weed species were planted in pots containing a growing medium comprising spaghnum peat moss, vermiculite, wetting agent and starter nutrients and treated with postemergence applications of some of the test chemicals formulated in the same manner. Plants ranged in height from 2 to 18 cm for postemergence treatments (1- to 4-leaf stage).
(§2) Treated plants and controls were maintained in a greenhouse for 14 to 21 days, after which time all species were compared to controls and visually evaluated. Plant response ratings, summarized in Table E, are based on a scale of 0 to 100 where 0 is no effect and 100 is complete control. A dash (-) response means no test result.

[2] = system: barnyardgrass (Echinochloa crus-galli); experiment: Test E pre-/postemergence: barnyardgrass; assay type: in vivo; conditions: scale 0 to 100
Text: as §1, §2

[3] = system: nutsedge, yellow (yellow nutsedge, Cyperus esculentus); experiment: Test E pre-/postemergence: nutsedge, yellow; assay type: in vivo; conditions: Preemergence, scale 0 to 100
Text: as §1, §2

kochia (Kochia scoparia) = experiment: Test F pre-/postemergence: kochia; assay type: in vivo; conditions: Preemergence
Text: Seeds of plant species selected from corn (Zea mays), soybean (Glycine max), velvetleaf (Abutilon theophrasti), lambsquarters (Chenopodium album), poinsettia, wild (wild poinsettia, Euphorbia heterophylla), pigweed, palmer (palmer pigweed, Amaranthus palmeri), waterhemp (common waterhemp, Amaranthus rudis), surinam grass (Brachiaria decumbens), crabgrass, Brazil (Brazilian crabgrass, Digitaria horizontalis), panicum, fall (fall panicum Panicum dichotomiflorum), crabgrass, large (large crabgrass, Digitaria sanguinalis), foxtail, giant (giant foxtail, Setaria faberii), foxtail, green (green foxtail Setaria viridis), goosegrass (Eleusine indica), ragweed (common ragweed, Ambrosia elatior), barnyardgrass (Echinochloa crus-galli), sandbur (southern sandbur, Cenchrus echinatus), arrowleaf sida (Sida rhombifolia), ryegrass, Italian (Italian ryegrass, Lolium multiflorum), dayflower, VA (Virginia (VA) dayflower, Commelina virginica), field bindweed (Convolvulus arvensis), cocklebur (common cocklebur, Xanthium strumarium), morningglory (Ipomoea coccinea), nightshade (eastern black nightshade, Solanum ptycanthum), kochia (Kochia scoparia), nutsedge, yellow (yellow nutsedge, Cyperus esculentus), johnsongrass (Sorghum halepense), smartweed (ladysthumb smartweed, Polygonum persicaria), and beggarticks (hairy beggarticks, Bidens pilosa), were planted into a silt loam soil and treated preemergence with test chemicals formulated in a non-phytotoxic solvent mixture which included a surfactant. At the same time, plants selected from these crop and weed species and also pigweed (Amaranthus retroflexus), waterhemp_RES1 (ALS/Triazine resistant common waterhemp, Amaranthus rudis) and waterhemp_RES2 (ALS/HPPD resistant common waterhemp, Amaranthus rudis) were planted in pots containing a planting medium comprising spaghnum peat moss, vermiculite, wetting agent and starter nutrients treated with postemergence applications of some of the test chemicals formulated in the same manner. Plants ranged in height from 2 to 18 cm for postemergence treatments (1- to 4-leaf stage).
as §2

Barnyardgrass = experiment: Test C preemergence: barnyardgrass; assay type: in vivo, Echinochloa crus-galli
Text: (§3) Seeds of plant species selected from blackgrass (Alopecurus myosuroides), bromegrass, downy (downy bromegrass, Bromus tectorum), foxtail, green (green foxtail, Setaria viridis), ryegrass, Italian (Italian ryegrass, Lolium multiflorum), winter wheat (Triticum aestivum), wild oat (Avena fatua), galium (catchweed bedstraw, Galium aparine), bermudagrass (Cynodon dactylon), surinam grass (Brachiaria decumbens), cocklebur (common cocklebur, Xanthium strumarium), corn (Zea mays), large crabgrass (Digitaria sanguinalis), woolly cupgrass (Eriochloa villosa), foxtail, giant (giant foxtail, Setaria faberii), goosegrass (Eleusine indica), johnsongrass (Sorghum halepense), kochia (Kochia scoparia), lambsquarters (Chenopodium album), morningglory (Ipomoea coccinea), nightshade (eastern black nightshade, Solanum ptycanthum), nutsedge, yellow (yellow nutsedge, Cyperus esculentus), pigweed (Amaranthus retroflexus), ragweed (common ragweed, Ambrosia elation), soybean (Glycine max), common (oilseed) sunflower (Helianthus annuus), Russian thistle (Salsola kali) and velvetleaf (Abutilon theophrasti) were planted into a blend of loam soil and sand and treated preemergence with test chemicals formulated in a non-phytotoxic solvent mixture which included a surfactant.
as §2, with “13” for “14”, “15” for “21”, “C,” for “E,”

[4] = system: barnyardgrass (Echinochloa crus-galli); experiment: Test C pre-/postemergence: barnyardgrass; assay type: in vivo; conditions: Preemergence, 250 g ai/ha; scale 0 to 100, 0 no effect, 100 complete control
Text: as §3
At the same time, plants selected from these crop and weed species and also barley (winter barley, Hordeum vulgare), canarygrass (Phalaris minor), chickweed (common chickweed, Stellaria media) windgrass (Apera spica-venti) and deadnettle (henbit deadnettle, Lamium amplexicaule) were planted in pots containing Redi-Earth® planting medium (Scotts Company, 14111 Scottslawn Road, Marysville, Ohio 43041) comprising spaghnum peat moss, vermiculite, wetting agent and starter nutrients and treated with postemergence applications of test chemicals formulated in the same manner. Plants ranged in height from 2 to 18 cm (1- to 4-leaf stage) for postemergence treatments.
as §2, with “13” for “14”, “15” for “21”, “C,” for “E,”

Oilseed Rape = experiment: Test C preemergence: oilseed rape; assay type: in vivo; conditions: scale 0 (no effect) to 100 (complete control)
[5] = 16 g ai/ha, scale 0 to 100 (0 no effect, 100 complete control)
[6] = 31 g ai/ha, scale 0 to 100 (0 no effect, 100 complete control)
[7] = 31 g ai/ha, scale of 0 to 100, 0 is no effect, 100 is complete control
[8] = 62 g ai/ha, scale of 0 to 100, 0 is no effect, 100 is complete control
[9] = 125 g ai/ha, scale 0 to 100, 0 no effect, 100 complete control
[10] = 31 g ai/ha, scale 0 (no effect) to 100 (complete control)

Cc1nn(-c2ccc(F)cc2)nc1Cc1ccnc(C(F)(F)F)c1 [Compound 16, 4-[[2-(4-fluorophenyl)-5-methyl-2H-1,2,3-triazol-4-yl]methyl]-2-(trifluoromethyl)pyridine]
Plant response rating: Foxtail, Giant ([1]; 8 g ai/ha): 5 | Plant response rating: Foxtail, Giant ([1]; 16 g ai/ha): 80 | Plant response rating: Foxtail, Giant ([1]; 31 g ai/ha): 100 | Plant response rating: Foxtail, Giant ([1]; 125 g ai/ha): 100 | Plant response rating: Barnyardgrass ([2]; Preemergence, 8 g ai/ha): 0 | Plant response rating: Barnyardgrass ([2]; Preemergence, 16 g ai/ha): 10 | Plant response rating: Barnyardgrass ([2]; Preemergence, 31 g ai/ha): 50 | Plant response rating: Barnyardgrass ([2]; Preemergence, 62 g ai/ha): 98 | Plant response rating: Barnyardgrass ([2]; Preemergence, 125 g ai/ha): 98 | Plant response rating: Nutsedge, Yellow ([3]; 8 g ai/ha): 0 | Plant response rating: Nutsedge, Yellow ([3]; 16 g ai/ha): 0 | Plant response rating: Nutsedge, Yellow ([3]; 31 g ai/ha): 0 | Plant response rating: Nutsedge, Yellow ([3]; 62 g ai/ha): 20 | Plant response rating: Nutsedge, Yellow ([3]; 125 g ai/ha): 20

Cc1nn(-c2ccc(C(F)(F)F)cc2)nc1Cc1ccnc(C(F)(F)F)c1 [Compound 47, 4-[[5-methyl-2-[4-(trifluoromethyl)phenyl]-2H-1,2,3-triazol-4-yl]methyl]-2-(trifluoromethyl)pyridine]
Plant response rating: Foxtail, Giant ([1]; 16 g ai/ha): 90 | Plant response rating: Foxtail, Giant ([1]; 31 g ai/ha): 100 | Plant response rating: Foxtail, Giant ([1]; 62 g ai/ha): 100 | Plant response rating: Foxtail, Giant ([1]; 125 g ai/ha): 100 | Plant response rating: Foxtail, Giant ([1]; 250 g ai/ha): 100 | Plant response rating: Barnyardgrass ([2]; Postemergence, 250 g ai/ha): 60 | Plant response rating: Barnyardgrass ([2]; Postemergence, 16 g ai/ha): 30 | Plant response rating: Barnyardgrass ([2]; Postemergence, 31 g ai/ha): 30 | Plant response rating: Barnyardgrass ([2]; Postemergence, 62 g ai/ha): 40 | Plant response rating: Barnyardgrass ([2]; Postemergence, 125 g ai/ha): 45 | Plant response rating: Barnyardgrass ([2]; Preemergence, 16 g ai/ha): 5 | Plant response rating: Barnyardgrass ([2]; Preemergence, 31 g ai/ha): 30 | Plant response rating: Barnyardgrass ([2]; Preemergence, 62 g ai/ha): 85 | Plant response rating: Barnyardgrass ([2]; Preemergence, 125 g ai/ha): 100 | Plant response rating: Barnyardgrass ([2]; Preemergence, 250 g ai/ha): 100 | Plant response rating: Nutsedge, Yellow ([3]; 16 g ai/ha): 0 | Plant response rating: Nutsedge, Yellow ([3]; 31 g ai/ha): 0 | Plant response rating: Nutsedge, Yellow ([3]; 62 g ai/ha): 10 | Plant response rating: Nutsedge, Yellow ([3]; 125 g ai/ha): 10 | Plant response rating: Nutsedge, Yellow ([3]; 250 g ai/ha): 35

Cc1nn(-c2ccc(F)cc2)nc1Oc1ccnc(C(F)(F)F)c1 [Compound 129, 4-[[2-(4-fluorophenyl)-5-methyl-2H-1,2,3-triazol-4-yl]oxy]-2-(trifluoromethyl)pyridine]
Plant response rating: Foxtail, Giant ([1]; 8 g ai/ha): 0 | Plant response rating: Foxtail, Giant ([1]; 16 g ai/ha): 20 | Plant response rating: Foxtail, Giant ([1]; 31 g ai/ha): 75 | Plant response rating: Foxtail, Giant ([1]; 62 g ai/ha): 98 | Plant response rating: Foxtail, Giant ([1]; 125 g ai/ha): 100 | Plant response rating: Barnyardgrass ([2]; Preemergence, 8 g ai/ha): 0 | Plant response rating: Barnyardgrass ([2]; Preemergence, 16 g ai/ha): 0 | Plant response rating: Barnyardgrass ([2]; Preemergence, 31 g ai/ha): 5 | Plant response rating: Barnyardgrass ([2]; Preemergence, 62 g ai/ha): 10 | Plant response rating: Barnyardgrass ([2]; Preemergence, 125 g ai/ha): 35 | Plant response rating: Nutsedge, Yellow ([3]; 8 g ai/ha): 0 | Plant response rating: Nutsedge, Yellow ([3]; 16 g ai/ha): 0 | Plant response rating: Nutsedge, Yellow ([3]; 31 g ai/ha): 0 | Plant response rating: Nutsedge, Yellow ([3]; 62 g ai/ha): 0 | Plant response rating: Nutsedge, Yellow ([3]; 125 g ai/ha): 20

Fc1ccc(-n2nc(Cc3ccnc(C(F)(F)F)c3)c(OCC(F)(F)F)n2)cc1 [Compound 142]
Plant response rating, Kochia (kochia (Kochia scoparia); [5]): 20 | Plant response rating, Kochia (kochia (Kochia scoparia); [6]): 80 | Plant response rating, Kochia (kochia (Kochia scoparia); 62 g ai/ha, scale 0 to 100): 85 | Plant response rating, Kochia (kochia (Kochia scoparia); 125 g ai/ha, scale 0 to 100): 95

CCCc1nn(-c2ccc(F)cc2)nc1Cc1ccnc(C(F)(F)F)c1 [Compound 153]
Plant response rating, Barnyardgrass (Barnyardgrass; [7]): 90 | Plant response rating, Barnyardgrass (Barnyardgrass; [8]): 90 | Plant response rating, Barnyardgrass (Barnyardgrass; [9]): 100 | Plant response rating, Barnyardgrass [4]: 100 | Plant response rating, Kochia (kochia (Kochia scoparia); [5]): 25 | Plant response rating, Kochia (kochia (Kochia scoparia); [6]): 75 | Plant response rating, Kochia (kochia (Kochia scoparia); 62 g ai/ha, scale 0 to 100): 95 | Plant response rating, Kochia (kochia (Kochia scoparia); 125 g ai/ha, scale 0 to 100): 100 | Plant response rating, Kochia (kochia (Kochia scoparia); 250 g ai/ha, scale 0 to 100): 100

Cc1nn(-c2ccc(C(F)(F)F)c(F)c2)nc1Cc1ccnc(C(F)(F)F)c1 [Compound 162]
Plant response rating, Barnyardgrass (Barnyardgrass; [7]): 98 | Plant response rating, Barnyardgrass (Barnyardgrass; [8]): 100 | Plant response rating, Barnyardgrass (Barnyardgrass; [9]): 100 | Plant response rating, Barnyardgrass [4]: 100 | Plant response rating, Kochia (kochia (Kochia scoparia); 4 g ai/ha, scale 0 to 100, 0 no effect, 100 complete control): 30 | Plant response rating, Kochia (kochia (Kochia scoparia); [6]): 70 | Plant response rating, Kochia (kochia (Kochia scoparia); 62 g ai/ha, scale 0 to 100): 98

CCc1nn(-c2ccc(F)cc2)nc1Oc1ccnc(C(F)(F)F)c1 [Compound 166]
Plant response rating, Barnyardgrass (Barnyardgrass; [10]): 5 | Plant response rating, Barnyardgrass (Barnyardgrass; [8]): 75 | Plant response rating, Barnyardgrass (Barnyardgrass; [9]): 98 | Plant response rating, Barnyardgrass [4]: 100 | Plant response rating, Oilseed Rape (Oilseed Rape; 31 g ai/ha): 50

CCCc1nn(-c2ccc(C(F)(F)F)c(F)c2)nc1Oc1ccnc(C(F)(F)F)c1 [Compound 185]
Plant response rating, Barnyardgrass (Barnyardgrass; [10]): 55 | Plant response rating, Barnyardgrass (Barnyardgrass; [8]): 98 | Plant response rating, Barnyardgrass (Barnyardgrass; [9]): 100 | Plant response rating, Barnyardgrass [4]: 100 | Plant response rating, Oilseed Rape (Oilseed Rape; 31 g ai/ha): 60

CCOc1nn(-c2ccc(Br)cc2)nc1Cc1ccnc(C(F)(F)F)c1 [Compound 189]
Plant response rating, Barnyardgrass (Barnyardgrass; 16 g ai/ha, scale 0 (no effect) to 100 (complete control)): 25 | Plant response rating, Barnyardgrass (Barnyardgrass; [10]): 45 | Plant response rating, Barnyardgrass (Barnyardgrass; [8]): 98 | Plant response rating, Barnyardgrass (Barnyardgrass; [9]): 100 | Plant response rating, Oilseed Rape (Oilseed Rape; 16 g ai/ha): 5
